Measured values: paper PMC7555970, “Design, Synthesis and Biological Evaluation of Biphenylglyoxamide-Based Small Molecular Antimicrobial Peptide Mimics as Antibacterial Agents” (International Journal of Molecular Sciences, 2020)
Values after ≈ are worked out from the molar mass of the structure shown. Like-named read-outs stand apart in the source and are kept apart here.

Legend:
[1] = test system: P. aeruginosa (PA01); conditions: cited from earlier work
[2] = test system: S. aureus (SA38); conditions: cited from earlier work
[3] = test system: E. coli (K12); conditions: cited from earlier work
[4] = test system: Gram-negative bacteria; design: method as in doi:10.1002/slct.201700336, PMID 28203673; conditions: previously reported ref 43, 44; cited from earlier work
[5] = test system: MRC-5 normal human lung fibroblasts; assay: MTT toxicity assay; format: cell-based; conditions: Homo sapiens, MRC5, 72 h, 72 h drug incubation, read-out: IC50 against MRC-5 normal human lung fibroblasts
Method: The toxicity of the compounds was measured using an MTT (3-(4,5-dimethylthiazol-2-yl)-2,5-diphenyltetrazolium bromide) (Sigma Aldrich, St Louis, MO, USA) colorimetric assay against normal human lung fibroblasts MRC-5 cells. The cells were cultured in minimal essential medium (MEM; Sigma Aldrich, St Louis, MO, USA) containing 10% foetal bovine serum (FBS). The cells were maintained at 37 °C in 5% CO2 as an adherent monolayer and was passaged upon reaching confluence by standard cell culture techniques. MRC-5 cells were seeded at 5000 cells/well in 96-well plates to ensure full confluence (quiescence) and left overnight to adhere to the plate wells. The adherent cells were treated with 1–500 µM of compounds by dissolving in DMSO and serially diluting with media. The final concentration of DMSO was 0.5% (v/v). After 72 h drug incubation, […] stock MTT solution (5 mg/mL) was added and the cells were incubated for another 3.5–4 h. MTT solution-containing media was carefully aspirated without displacing the purple crystals from the bottom and […] acid-isopropanol was added to all wells and mixed slowly by shaking with an orbital shaker to dissolve the dark blue crystals. The metabolic activity was detected by spectrophotometric analysis by assessing the read absorbance (590/620 nm) on an EnSight plate reader (PerkinElmer, Waltham, MA, USA) and cell viability was expressed as a percentage of untreated control cells. The determination of IC50 values was performed using GraphPad Prism 6 (GraphPad, San Diego, CA, USA). Each experiment was performed in triplicate and was repeated in three independent experiments.

[6] = test system: P. aeruginosa (PA01); assay: Minimum inhibitory concentration (MIC) assay against P. aeruginosa; format: cell-based; conditions: Pseudomonas aeruginosa
Method: (§1) The antimicrobial activity of the compounds was evaluated by MIC assay using the procedure described by Clinical and Laboratory Standards Institute (CLSI). A single colony of bacteria was cultured overnight in trypticase soy broth (TSB; Oxoid, Basingstoke, UK) at 37 °C with shaking. The resulting bacterial culture was collected by centrifugation and resuspended in TSB twice. The optical density (OD) of the resulting culture was adjusted to OD660 = 0.1 in TSB (which is equivalent to 10^8 colony forming unit (CFU)/mL bacteria). It was further diluted to 10^6 CFU/mL in TSB. 100 µL of the bacterial solution was then added to wells of a 96-well plate (Costar; Sigma-Aldrich, St Louis, MO, USA) containing 100 µL serially diluted peptide mimic, with final concentration ranging from 1 to 250 µM. Wells with bacteria but no compound were used as negative control while wells with only media were set as blank. The plates were then wrapped with parafilm to prevent evaporation and incubated with shaking at 120 rpm at 37 °C for 18–24 h, and the data were recorded by measuring the OD value at 660 nm using a FLUOstar Omega (BMG Labtech, Mornington, Victoria, Australia) microplate reader. […] Each experiment was performed in triplicate and was repeated in three independent experiments.

[7] = test system: established S. aureus biofilms; assay: Biofilm disruption assay (crystal violet staining), S. aureus; format: cell-based, Staphylococcus aureus; conditions: 24 h treatment
Method: (§2) Bacterial cultures (S. aureus and E. coli) were grown in Muller Hinton broth (MHB; Oxoid, Basingstoke, UK) media overnight at 37 °C with shaking at 120 rpm. Cultures were diluted (1:20) in MHB medium and 200 µL aliquots were dispensed to wells in a flat bottom 96-well plate (Costar; Sigma-Aldrich, St Louis, MO, USA). Biofilm was then grown in the 96-well plate at 37 °C overnight. After that, loosely bound cells were washed away with 1x phosphate-buffered saline (PBS) and cultures were then supplemented with different concentrations of test compounds dissolved in DMSO and incubated for a further 24 h with shaking at 120 rpm. Biofilms adhered on the plate substratum were quantified using crystal violet staining as described previously. The experiment was performed in triplicate.

[8] = Tethered bilayer lipid membranes (tBLMs) assay, zwitterionic membrane; conditions: for shift in membrane conductance: zwitterionic POPC tBLMs, concentrations as low as 100 nM; for changes of membrane conduction: zwitterionic membrane, higher concentrations (1–100 μM); for membrane capacitance: zwitterionic tBLMs, saturating concentrations
Method: (§3) Changes in membrane conduction and capacitance were measured using tethered bilayer lipid membranes (tBLMs) in association with AC electrical impedance spectroscopy techniques. Sparsely tethered tBLMs were prepared using a zwitterionic 1-palmitoyl-2-oleoyl-glycero-3-phosphocholine (POPC) (Avanti Lipids, USA) or a mixture of 30% palmitoyl-oleoyl-phosphatidylglycerol (POPG) (Avanti Lipids, USA) lipids with 70% POPC in order to create a negatively charged tBLM [66, 67]. To do this, gold-patterned polycarbonate slides were coated with tethered benzyl-disulfide (tetra-ethyleneglycol) n = 2 C20-phytanyl tethers:benzyl-disulfide-tetra-ethyleneglycol-OH spacers in the ratio of 1:10 (SDx Tethered Membranes Pty Ltd., Australia). A 3 mM solution of a mobile lipid phase POPC, or a 3 mM solution of mobile phase POPC/POPG (70:30), (Avanti Lipids, USA) in 100% ethanol was then incubated with the tethering chemistries. Lipids were left to incubate with the tethering chemistries for 2 min before being washed with 3 × […] of phosphate-buffered saline (PBS). Prior to the addition of the compounds, membrane stability was confirmed by 5 × 100 µL washes of the PBS vehicle. AC electrical impedance spectrometry (EIS) was then used to monitor any changes in membrane impedances as a result of adding the test compounds in increasing concentrations.
(§4) For EIS measures, a 50 mV peak-to-peak AC excitation from 0.1 to 2000 Hz with four steps per decade were recorded using a TethaPod™ operated with TethaQuick™ software (SDx Tethered Membranes Pty Ltd., Australia). The data were fitted to an equivalent circuit consisting of a Constant Phase Element (CPE), to represent the imperfect capacitance of the gold tethering electrode, in series with a Resistor/Capacitor network to represent the lipid bilayer membrane. Fitting of the phase and impedance data to the equivalent circuit was completed with a proprietary adaptation of a Lev Mar fitting routine. To account for variations in basal membrane conditions, data are normalised to a baseline conduction and capacitance values directly before the addition of each compound.

[9] = test system: preformed E. coli biofilm; assay: Biofilm disruption assay (crystal violet staining), E. coli; format: cell-based, Escherichia coli; conditions: 4× MIC (64 μM), 24 h treatment
Method: as §2

[10] = test system: E. coli (K12); assay: Minimum inhibitory concentration (MIC) assay against E. coli; format: cell-based; conditions: Escherichia coli
Method: as §1

[11] = Tethered bilayer lipid membranes (tBLMs) assay, negatively charged membrane; conditions: for changes in membrane conductance: 30% POPG membranes, concentrations <1 μM; for changes of membrane conduction: negatively charged membranes, higher concentrations (1–100 μM), compared to zwitterionic; for membrane capacitance: negatively charged tBLMs, saturating concentrations
Method: as §3, §4

[12] = test system: S. aureus; assay: Time-kill kinetic / cell viability count assay; format: cell-based, Staphylococcus aureus
Method: The number of viable cells was confirmed by serially diluting aliquots of bacteria in D/E neutralizing broth (Remel, Lenexa, KS, USA) and plating onto Tryptic Soy Agar (Oxoid, Basingstoke, UK) containing phosphatidylcholine (0.7 g/L) and Tween 80 (5 mL/L). The plates were incubated at 37 °C overnight and numbers of live bacteria were enumerated and expressed as CFU/mL. The experiment was performed in triplicate.

[13] = test system: cytoplasmic membrane of S. aureus; assay: Cytoplasmic membrane permeability (diSC3-5 dye release) assay; format: cell-based, Staphylococcus aureus; conditions: 1× and 2× MIC
Method: Bacterial cytoplasmic membrane permeability was determined using membrane potential-sensitive dye diSC3–5 (3,3′-dipropylthiadicarbocyanine iodide), which penetrates inside bacterial cells depending on the membrane potential gradient of the cytoplasmic membrane. The procedure of this assay follows the method previously described by Wu et al. with slight modifications. Bacteria were grown in MHB to mid-log phase by incubating with shaking at 37 °C for […]. Following incubation, bacteria were washed with 5 mM HEPES containing 20 mM glucose at pH 7.2 and resuspended in the same buffer to an OD600 0.05–0.06 (yielding a final concentration of 10^7 CFU/mL). The dye diSC3–5 was added at 4 μM to the bacterial suspension. The suspensions were incubated at room temperature for 1 h in darkness for maximum dye take-up by the bacterial cells. 100 mM KCl was then added to balance the K^+ outside and inside the bacterial cell. 100 μL of bacterial suspension was added in a 96-well microtiter plate and with equal volume of antimicrobial compounds. DMSO (10%) was set as a positive control while dye and only bacterial cells were set as negative control. Fluorescence due to release of dye was measured with a luminescence spectrophotometer at 3 min intervals at an excitation wavelength of 621 nm and an emission wavelength of 670 nm.

[14] = test system: S. aureus (SA38); assay: Minimum inhibitory concentration (MIC) assay against S. aureus; format: cell-based, Staphylococcus aureus; conditions: Staphylococcus aureus
Method: as §1

[15] = no antibacterial activity at the highest concentration tested (250 μM) ref 43
[16] = any tested concentration (1×, 2× and 4× MIC)
[17] = previously reported values ref 51

| Molecule | IC50 [5] | MIC [6] | disruption of preformed S. aureus biofilms ([7]; 4× MIC (32 μM)) | changes of membrane conduction [8] | MIC [10] | changes of membrane conduction [11] | increase in diSC3-5 fluorescence intensity (cytoplasmic membrane disruption) [13] | MIC [14] | further results |
| --- | --- | --- | --- | --- | --- | --- | --- | --- | --- |
| CCCCCCCCS(=O)(=O)Nc1ccccc1C(=O)C(=O)NCCC[N+](C)(C)C [Compound 4a] | – | – | – | – | – | – | – | – | MIC against P. aeruginosa [1, 15]: > 250 µM; MIC against S. aureus ([2]; previously synthesised N-sulfonylphenylglyoxamide iodide salts ref 43): 250 µM; MIC against E. coli [3, 15]: > 250 µM |
| N=C(N)NCCCNC(=O)C(=O)c1cc(Br)ccc1NC(=O)c1ccc2ccccc2c1 [Compound 5] | – | – | – | – | – | – | – | – | antibacterial activity against Gram-negative bacteria [4]: no antibacterial activity; MIC against S. aureus ([2]; previously reported ref 44): 12 µM (≈ 5.96 µg/mL) |
| CCCCCCCCS(=O)(=O)Nc1ccc(-c2ccc(Cl)cc2)cc1C(=O)C(=O)NCCC[N+](C)(C)C.[I-] [Compound 15c, 3-(2-(4’-Chloro-4-(octylsulfonamido)-[1,1’-biphenyl]-3-yl)-2-oxoacetamido)-N,N,N-trimethylpropan-1-aminium iodide] | 95.8 µM | 63 µM | 35% | more pronounced | 16 µM | lower | largest increase in fluorescence intensity | 8 µM | shift in membrane conductance [8]: 2.5 ×; membrane capacitance [8]: large increase; disruption of preformed E. coli biofilm [9]: insignificant amount; changes in membrane conductance [11]: notably absent; membrane capacitance [11]: large increase; reduction in bacterial numbers ([12]; 1× MIC): 1 log; reduction in bacterial numbers ([12]; 2× MIC): 2 log |
| CCCCCCCCS(=O)(=O)Nc1ccc(-c2ccc3ccccc3c2)cc1C(=O)C(=O)NCCC[N+](C)(C)C.[I-] [Compound 15d, N,N,N-Trimethyl-3-(2-(5-(naphthalen-2-yl)-2-(octylsulfonamido)phenyl)-2-oxoacetamido)propan-1-aminium iodide] | 112 µM | 250 µM | – | more pronounced | 63 µM | lower | – | 8 µM | disruption of preformed S. aureus biofilms [7, 16]: failed to disrupt any; shift in membrane conductance [8]: 2.5 ×; membrane capacitance [8]: large increase; changes in membrane conductance [11]: notably absent; membrane capacitance [11]: large increase |
| CCCCCCCCS(=O)(=O)Nc1ccc(-c2ccccc2)cc1C(=O)C(=O)NCCCNC(=N)N.Cl [Compound 22a, N-(3-Guanidinopropyl)-2-(4-(octylsulfonamido)-[1,1’-biphenyl]-3-yl)-2-oxoacetamide hydrochloride] | 75.5 µM | 63 µM | – | more pronounced | 63 µM | lower | – | 8 µM | disruption of preformed S. aureus biofilms [7, 16]: failed to disrupt any |
| CCCCCCCCS(=O)(=O)Nc1ccc(-c2ccc(F)cc2)cc1C(=O)C(=O)NCCCNC(=N)N.Cl [Compound 22b, 2-(4’-Fluoro-4-(octylsulfonamido)-[1,1’-biphenyl]-3-yl)-N-(3-guanidinopropyl)-2-oxoacetamide hydrochloride] | 76 µM | 63 µM | 39% | – | 16 µM | – | modest | 8 µM | disruption of preformed E. coli biofilm [9]: insignificant amount; reduction in bacterial numbers ([12]; 1× and 2× MIC): less than 1 log |
| CCCCCCCCS(=O)(=O)Nc1ccc(-c2ccc3ccccc3c2)cc1C(=O)C(=O)NCCCNC(=N)N.Cl [Compound 22d, N-(3-Guanidinopropyl)-2-(5-(naphthalen-2-yl)-2-(octylsulfonamido)phenyl)-2-oxoacetamide hydrochloride] | 49.5 µM | > 250 µM | 50% | – | > 250 µM | – | modest | 8 µM | reduction in bacterial numbers ([12]; 1× and 2× MIC): less than 1 log |
| pexiganan [pexiganan (MSI-78)] | – | – | – | – | – | – | – | – | MIC P. aeruginosa [1, 17]: 3.2 to 6.5 µM; MIC S. aureus [2, 17]: 3.2 to 6.5 µM; MIC E. coli [3, 17]: 3.2 to 6.5 µM |
